Consider 6 compounds from ChEMBL document CHEMBL1914295, “Synthesis and biological evaluation of some novel triazol-3-ones as antimicrobial agents” (2011).

Type in all cases: functional
Holding throughout (settings): read-out: IZ

The test system of assay [1] is Klebsiella pneumoniae. Briefly: Antibacterial activity against Klebsiella pneumoniae at 100 ug/ml after 24 hrs by disc diffusion method.
Assay [2] relates to Staphylococcus aureus. Briefly: Antibacterial activity against Staphylococcus aureus at 200 ug/ml after 24 hrs by disc diffusion method.
The test system of assay [3] is Bacillus subtilis. Kind of assay: Antibacterial activity against Bacillus subtilis at 200 ug/ml after 24 hrs by disc diffusion method.
Assay [4] relates to Escherichia coli. Kind of assay: Antibacterial activity against Escherichia coli at 200 ug/ml after 24 hrs by disc diffusion method.
Assay [5] deals with Candida albicans. Kind of assay: Antifungal activity against Candida albicans at 200 ug/ml after 48 hrs by disc diffusion method.
Assay [6] has as its system Bacillus subtilis. Briefly: Antibacterial activity against Bacillus subtilis at 100 ug/ml after 24 hrs by disc diffusion method.
For assay [7], the system named is Aspergillus niger. Kind of assay: Antifungal activity against Aspergillus niger at 100 ug/ml after 48 hrs by disc diffusion method.
The subject of assay [8] is Staphylococcus aureus. Kind of assay: Antibacterial activity against Staphylococcus aureus at 100 ug/ml after 24 hrs by disc diffusion method.
In assay [9] the test system is Candida albicans. Kind of assay: Antifungal activity against Candida albicans at 100 ug/ml after 48 hrs by disc diffusion method.
The test system of assay [10] is Fusarium solani. Briefly: Antifungal activity against Fusarium solani at 200 ug/ml after 48 hrs by disc diffusion method.
Assay [11] has as its system Fusarium solani. Briefly: Antifungal activity against Fusarium solani at 100 ug/ml after 48 hrs by disc diffusion method.
Assay [12] concerns Escherichia coli. Kind of assay: Antibacterial activity against Escherichia coli at 100 ug/ml after 24 hrs by disc diffusion method.
In assay [13] the test system is Aspergillus niger. Kind of assay: Antifungal activity against Aspergillus niger at 200 ug/ml after 48 hrs by disc diffusion method.
Assay [14] deals with Klebsiella pneumoniae. Briefly: Antibacterial activity against Klebsiella pneumoniae at 200 ug/ml after 24 hrs by disc diffusion method.

As to `O=c1[nH]ncn1-c1nc(-c2ccsc2)cs1`, the zone of inhibition at 100 µg/mL in [1] turned out to be 22 mm; in assay [6], 27 mm; in [7], 34 mm; in [8], 25 mm; in assay [9], 35 mm; in assay [11], 32 mm. In addition, the zone of inhibition at 100 µg/mL in [12] came to 24 mm. Moreover, the zone of inhibition at 200 µg/mL turned out to be 28 mm in assay [2]; 29 mm in [3]; 26 mm in assay [4]; 38 mm in assay [5]; 37 mm in assay [10]; 39 mm in assay [13]. In addition, the zone of inhibition at 200 µg/mL in assay [14] was found to be 26 mm.
As to `CC(C)n1ncn(-c2nc(-c3ccsc3)cs2)c1=O`, the zone of inhibition at 100 µg/mL in assay [1] came out at 26 mm; in assay [6] it was 20 mm; in [7], 30 mm; in assay [8], 25 mm; in [9] it was 22 mm; in assay [11] it was 27 mm. In [12], the zone of inhibition at 100 µg/mL amounted to 22 mm. The zone of inhibition at 200 µg/mL turned out to be 27 mm in assay [2]; 23 mm in assay [3]; 24 mm in assay [4]; 24 mm in [5]; 29 mm in [10]; 33 mm in assay [13]. In addition, the zone of inhibition at 200 µg/mL in assay [14] turned out to be 29 mm.
`CC(C)Cn1ncn(-c2nc3c(s2)C(C)Sc2sccc2-3)c1=O` (centres undefined): the zone of inhibition at 100 µg/mL in [1] came out at 10 mm; in assay [6] it was 13 mm; in assay [7], 16 mm; in [8] it was 12 mm; in assay [9], 17 mm; in [11], 16 mm. Moreover, in assay [12], the zone of inhibition at 100 µg/mL worked out at 12 mm. Besides, the zone of inhibition at 200 µg/mL worked out at 15 mm in [2]; 16 mm in assay [3]; 14 mm in [4]; 21 mm in assay [5]; 20 mm in [10]; 18 mm in assay [13]. For the same compound, in [14], the zone of inhibition at 200 µg/mL worked out at 12 mm.
`COCCCn1ncn(-c2nc(-c3ccsc3)cs2)c1=O`: the zone of inhibition at 100 µg/mL is 25 mm in [1]; 23 mm in [6]; 26 mm in assay [7]; 24 mm in [8]; 24 mm in assay [9]; 34 mm in assay [11]. In addition, the zone of inhibition at 100 µg/mL in [12] was found to be 24 mm. The zone of inhibition at 200 µg/mL stood at 26 mm in assay [2]; 26 mm in assay [3]; 28 mm in assay [4]; 28 mm in assay [5]; 36 mm in assay [10]; 28 mm in [13]. Besides, the zone of inhibition at 200 µg/mL in assay [14] stood at 28 mm.
Turning to `COCCCn1ncn(-c2nc3c(s2)C(C)Sc2sccc2-3)c1=O` (centres undefined), the zone of inhibition at 100 µg/mL is 21 mm in assay [1]; 31 mm in assay [6]; 37 mm in [7]; 23 mm in assay [8]; 36 mm in assay [9]; 39 mm in assay [11]. Moreover, the zone of inhibition at 100 µg/mL in assay [12] was determined as 22 mm. The zone of inhibition at 200 µg/mL worked out at 28 mm in assay [2]; 33 mm in [3]; 25 mm in assay [4]; 39 mm in [5]; 44 mm in assay [10]; 41 mm in assay [13]. Also, the zone of inhibition at 200 µg/mL in assay [14] turned out to be 24 mm.
With `CC1Sc2sccc2-c2nc(-n3cnn(CC#N)c3=O)sc21` (centres undefined), the zone of inhibition at 100 µg/mL is 11 mm in assay [1]; 15 mm in assay [6]; 16 mm in [7]; 13 mm in [8]; 14 mm in assay [9]; 15 mm in assay [11]. Moreover, the zone of inhibition at 100 µg/mL in [12] worked out at 11 mm. In addition, the zone of inhibition at 200 µg/mL in assay [2] was determined as 17 mm; in assay [3] it was 18 mm; in assay [4] it was 13 mm; in assay [5] it was 18 mm; in assay [10], 18 mm; in assay [13], 19 mm. Also, the zone of inhibition at 200 µg/mL in [14] stood at 14 mm.
